Assay results taken from BindingDB's records for doi:10.1016/j.bmcl.2004.02.007 (Research Triangle Institute, 2004).
pKi: −log10 of the molar value.

Columns and labels:
[1] = molecular target: Neuronal acetylcholine receptor subunit alpha-4/beta-2 (Rattus norvegicus, UniProt P09483+P12390); assay: Binding affinity towards rat Nicotinic acetylcholine receptor alpha4-beta2 expressed in Xenopus oocytes using [3H]epibatidine as radioligand
[2] = molecular target: Neuronal acetylcholine receptor subunit alpha-3/beta-2 (Rattus norvegicus, UniProt P12390+P04757); assay: Binding affinity towards rat Nicotinic acetylcholine receptor alpha3-beta2 expressed in Xenopus oocytes using [3H]epibatidine as radioligand
Sequence of Neuronal acetylcholine receptor subunit alpha-3/beta-2 (P12390 whole entry): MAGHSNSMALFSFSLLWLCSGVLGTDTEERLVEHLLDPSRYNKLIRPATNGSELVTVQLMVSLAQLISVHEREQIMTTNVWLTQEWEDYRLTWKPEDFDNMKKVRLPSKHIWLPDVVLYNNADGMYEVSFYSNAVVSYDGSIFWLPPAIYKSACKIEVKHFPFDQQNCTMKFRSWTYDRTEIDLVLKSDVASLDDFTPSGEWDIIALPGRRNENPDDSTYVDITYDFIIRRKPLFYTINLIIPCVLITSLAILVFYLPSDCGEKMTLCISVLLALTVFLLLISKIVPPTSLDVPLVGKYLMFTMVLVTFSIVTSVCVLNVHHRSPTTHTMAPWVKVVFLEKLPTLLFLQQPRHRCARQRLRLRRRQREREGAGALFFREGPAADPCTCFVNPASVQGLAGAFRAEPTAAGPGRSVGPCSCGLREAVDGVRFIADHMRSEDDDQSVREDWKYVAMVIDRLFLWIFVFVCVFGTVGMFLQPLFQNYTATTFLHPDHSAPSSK
Sequence of Neuronal acetylcholine receptor subunit alpha-3/beta-2 (P04757 whole entry): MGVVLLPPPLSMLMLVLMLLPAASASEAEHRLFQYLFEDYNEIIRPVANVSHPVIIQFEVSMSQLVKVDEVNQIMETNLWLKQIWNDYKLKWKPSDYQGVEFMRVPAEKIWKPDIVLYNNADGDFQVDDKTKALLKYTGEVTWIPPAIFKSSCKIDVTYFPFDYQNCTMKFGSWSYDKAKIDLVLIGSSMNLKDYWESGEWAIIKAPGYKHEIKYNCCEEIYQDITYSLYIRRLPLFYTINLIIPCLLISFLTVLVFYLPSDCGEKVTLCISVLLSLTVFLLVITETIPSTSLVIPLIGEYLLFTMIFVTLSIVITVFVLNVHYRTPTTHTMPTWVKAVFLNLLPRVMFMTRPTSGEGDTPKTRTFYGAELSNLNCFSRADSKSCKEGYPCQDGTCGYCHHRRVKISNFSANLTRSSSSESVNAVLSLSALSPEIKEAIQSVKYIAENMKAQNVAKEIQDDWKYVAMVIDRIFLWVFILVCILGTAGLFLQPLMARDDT

Sequence of Neuronal acetylcholine receptor subunit alpha-4/beta-2 (P09483 whole entry): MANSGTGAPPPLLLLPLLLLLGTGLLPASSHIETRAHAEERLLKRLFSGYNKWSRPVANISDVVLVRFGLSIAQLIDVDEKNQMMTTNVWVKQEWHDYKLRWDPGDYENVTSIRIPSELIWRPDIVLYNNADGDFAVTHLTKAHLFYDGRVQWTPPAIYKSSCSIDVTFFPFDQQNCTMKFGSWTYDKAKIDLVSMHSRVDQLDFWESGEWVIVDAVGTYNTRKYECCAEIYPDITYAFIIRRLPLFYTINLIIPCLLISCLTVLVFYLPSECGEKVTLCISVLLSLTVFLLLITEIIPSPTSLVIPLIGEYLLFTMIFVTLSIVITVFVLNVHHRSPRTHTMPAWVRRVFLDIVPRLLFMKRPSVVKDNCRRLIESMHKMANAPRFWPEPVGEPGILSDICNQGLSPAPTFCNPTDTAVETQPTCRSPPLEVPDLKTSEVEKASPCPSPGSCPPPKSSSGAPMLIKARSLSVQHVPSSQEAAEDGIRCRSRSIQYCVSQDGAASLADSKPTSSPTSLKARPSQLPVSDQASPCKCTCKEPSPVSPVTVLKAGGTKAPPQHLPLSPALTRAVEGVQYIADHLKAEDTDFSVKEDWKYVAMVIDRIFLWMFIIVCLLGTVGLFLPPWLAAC
Sequence of Neuronal acetylcholine receptor subunit alpha-4/beta-2 (P12390 whole entry): as the sequence (P12390 whole entry) above

Compound `c1cncc(C2CC3CCC2N3)c1` (configuration not stated) [2-(pyridin-3-yl)-7-aza-bicyclo[2.2.1]heptane] has a pKi [1] of 11.05.

`Fc1ccc(C2CC3CCC2N3)cn1` [(R)-2-(6-Fluoro-pyridin-3-yl)-7-aza-bicyclo[2.2.1]heptane] gave a pKi [2] of 11.40.
